Reference: paper PMC5490406, “Syntheses of Radioiodinated Pyrimidine-2,4,6-Triones as Potential Agents for Non-Invasive Imaging of Matrix Metalloproteinases” (Pharmaceuticals, 2017)

Legend:
human active MMP-2 = target: T1, human active MMP-2 (Homo sapiens, UniProt P08253); assay: fluorometric in vitro MMP inhibition assay, MMP-2; assay type: biochemical
T1 sequence (P08253 110-660): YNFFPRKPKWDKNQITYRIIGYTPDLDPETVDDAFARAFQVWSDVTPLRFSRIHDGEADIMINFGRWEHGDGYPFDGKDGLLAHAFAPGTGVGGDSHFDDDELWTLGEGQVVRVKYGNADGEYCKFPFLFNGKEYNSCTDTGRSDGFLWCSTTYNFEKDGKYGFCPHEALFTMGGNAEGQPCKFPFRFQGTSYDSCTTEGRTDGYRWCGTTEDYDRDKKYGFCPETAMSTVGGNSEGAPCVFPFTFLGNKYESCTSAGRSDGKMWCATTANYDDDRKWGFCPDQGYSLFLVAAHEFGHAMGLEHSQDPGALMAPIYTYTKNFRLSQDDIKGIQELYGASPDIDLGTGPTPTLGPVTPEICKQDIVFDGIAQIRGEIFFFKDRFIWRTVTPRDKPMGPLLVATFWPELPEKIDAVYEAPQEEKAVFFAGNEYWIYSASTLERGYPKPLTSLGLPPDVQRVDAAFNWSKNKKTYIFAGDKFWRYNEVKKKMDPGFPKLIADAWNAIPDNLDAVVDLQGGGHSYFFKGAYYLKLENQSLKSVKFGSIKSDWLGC
Protocol: (§1) The MMP inhibition potencies of the barbituric acid derivatives 5a, 5b, 6, 9 and 10 were measured in fluorometric in vitro inhibition assays as described previously.
(§2) An aliquot of substrate (10 μL of a 50 μM solution) was then added to 90 μL of the preincubated MMP/inhibitor mixture, and the fluorescence was determined at 37 °C by following product release with time. The fluorescence changes were monitored using a Fusion Universal Microplate Analyzer (Packard Bioscience, Boston, MA, USA) with excitation and emission wavelengths set to 330 and 390 nm, respectively. Reaction rates were measured from the initial 10 min of the reaction profile where product release was linear with time and plotted as a function of inhibitor dose. From the resulting inhibition curves, the IC50 values for each inhibitor were calculated by non-linear regression analysis, performed using the Grace 5.1.8 software (Linux).

human active MMP-9 = human active MMP-9 (Homo sapiens, UniProt P14780); assay: fluorometric in vitro MMP inhibition assay, MMP-9; assay type: biochemical
Chain of human active MMP-9 (P14780 107-707 limits assumed): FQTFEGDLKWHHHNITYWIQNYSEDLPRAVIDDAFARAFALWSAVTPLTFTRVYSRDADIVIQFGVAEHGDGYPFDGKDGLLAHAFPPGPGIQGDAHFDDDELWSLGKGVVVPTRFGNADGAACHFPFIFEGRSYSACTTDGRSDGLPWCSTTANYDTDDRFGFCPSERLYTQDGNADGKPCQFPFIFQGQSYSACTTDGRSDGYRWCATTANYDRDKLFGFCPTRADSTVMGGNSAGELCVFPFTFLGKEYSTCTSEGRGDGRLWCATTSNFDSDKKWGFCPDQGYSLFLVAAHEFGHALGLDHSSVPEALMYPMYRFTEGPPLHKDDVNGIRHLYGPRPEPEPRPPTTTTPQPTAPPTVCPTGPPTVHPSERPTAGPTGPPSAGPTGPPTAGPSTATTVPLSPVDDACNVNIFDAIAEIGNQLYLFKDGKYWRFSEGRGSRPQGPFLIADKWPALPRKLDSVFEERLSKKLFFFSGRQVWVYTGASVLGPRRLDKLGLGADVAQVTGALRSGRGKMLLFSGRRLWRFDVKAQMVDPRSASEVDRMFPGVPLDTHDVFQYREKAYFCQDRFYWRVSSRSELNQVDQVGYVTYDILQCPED
Protocol: as §1, §2

[1] = calculated logP/logD (ACD/Chemsketch ACD/Labs 6.00); conditions: relative to 12
human active MMP-13 = human active MMP-13 (Homo sapiens, UniProt P45452); assay: fluorometric in vitro MMP inhibition assay, MMP-13; assay type: biochemical
Protocol: as §1, §2

human active MMP-8 = human active MMP-8 (Homo sapiens, UniProt P22894); assay: fluorometric in vitro MMP inhibition assay, MMP-8; assay type: biochemical
Chain of human active MMP-8 (P22894 101-467): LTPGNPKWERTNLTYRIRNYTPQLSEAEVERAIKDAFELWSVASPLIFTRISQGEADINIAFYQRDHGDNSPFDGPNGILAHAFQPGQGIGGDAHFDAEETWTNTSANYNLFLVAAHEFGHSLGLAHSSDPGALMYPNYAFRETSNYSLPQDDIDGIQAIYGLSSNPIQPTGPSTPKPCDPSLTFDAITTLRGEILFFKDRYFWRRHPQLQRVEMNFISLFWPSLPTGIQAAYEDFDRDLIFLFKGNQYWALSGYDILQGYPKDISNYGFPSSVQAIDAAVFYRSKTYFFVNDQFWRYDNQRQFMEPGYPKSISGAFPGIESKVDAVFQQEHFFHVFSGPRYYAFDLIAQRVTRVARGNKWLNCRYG
Protocol: as §1, §2

human active MMP-14 = human active MMP-14 (Homo sapiens, UniProt P50281); assay: fluorometric in vitro MMP inhibition assay, MMP-14; assay type: biochemical
Protocol: as §1, §2

[2] = IC50 MMP-2 (range given jointly for MMP-2 and -9), summary of Table 1
[3] = IC50 MMP-2, mean ± SD of three assays
[4] = IC50 MMP-9 (range given jointly for MMP-2 and -9), summary of Table 1
[5] = IC50 MMP-9, mean ± SD of three assays

Which results are given for O=C(O)CCN1CCN(C2(c3ccc(I)cc3)C(=O)NC(=O)NC2=O)CC1 [5b, 5-[4-(2-Carboxyethyl)piperazin-1-yl]-5-(4-iodophenyl)pyrimidine-2,4,6-trione]?
IC50 (human active MMP-2; [2]): 670 to 1600 nM; IC50 (human active MMP-2; [3]): 1200 ± 340 nM; IC50 (human active MMP-9; [4]): 670 to 1600 nM; IC50 (human active MMP-9; [5]): 1600 ± 600 nM; melting point: 139 to 142 °C

What does the source list for O=C1NC(=O)C(c2ccc(I)cc2)(N2CCN(CCO)CC2)C(=O)N1 [5a, 5-[4-(2-Hydroxyethyl)piperazin-1-yl]-5-(4-iodophenyl)pryrimidine-2,4,6-trione]?
IC50 (human active MMP-2; [3]): 10 ± 3 nM; IC50 (human active MMP-9; [5]): 550 ± 180 nM; melting point: 168 to 172 °C

With O=C(O)CCN1CCN(C2(c3ccc(Oc4ccc(I)cc4)cc3)C(=O)NC(=O)NC2=O)CC1 [compound 9, 5-[4-(2-Carboxyethyl)piperazin-1-yl]-5-[4-(4-iodophenoxy)phenyl]pyrimidine-2,4,6-trione] as the molecule, how does the IC50 (human active MMP-2; [3]) read?
Its IC50 is 29 ± 2 nM.

And the IC50 (human active MMP-9; [5])?
The IC50 was 1.3 ± 0.2 nM.

What about the “increased water solubility compared to 12, inferred from clogD shift” value [1] of the same molecule?
The value was “approximately 400 fold”.

What about the IC50 (human active MMP-13) of the same molecule?
The IC50 was 362 ± 24 nM.

And the IC50 (human active MMP-8)?
Its IC50 is 1170 ± 80 nM.

What about the IC50 (human active MMP-14) of the same molecule?
Its IC50 is 49 nM.

And the melting point?
The melting point was 236 to 242 °C (dec.).

Which IC50 (human active MMP-2; [2]) does the source give for O=C1NC(=O)C(c2ccc(O)c(I)c2)(N2CCN(CCO)CC2)C(=O)N1 [compound 6, 5-(4-Hydroxy-3-iodophenyl)-5-[4-(2-hydroxyethyl)piperazin-1-yl]pryrimidine-2,4,6-trione] here?
The IC50 was 670 to 1600 nM.

What about the IC50 (human active MMP-2; [3]) of the same molecule?
The IC50 was 670 ± 210 nM.

And the IC50 (human active MMP-9; [4])?
Its IC50 is 670 to 1600 nM.

What about the IC50 (human active MMP-9; [5]) of the same molecule?
Its IC50 is 1300 ± 320 nM.

And the melting point?
Its melting point is 168 to 170 °C (dec.).

Which IC50 (human active MMP-2; [3]) does the source give for O=C1NC(=O)C(c2ccc(Oc3ccc(I)cc3)cc2)(N2CCN(CCOCCOCCOCCF)CC2)C(=O)N1 [compound 10, 5-(4-(2-(2-(2-(2-Fluoroethoxy)ethoxy)ethoxy)ethyl)piperazin-1-yl)-5-(4-(4-iodophenoxy)phenyl)-pyrimidine-2,4,6-trione] here?
Its IC50 is 23 ± 5 nM.

And the IC50 (human active MMP-9; [5])?
Its IC50 is 17 ± 5 nM.

What about the IC50 (human active MMP-13) of the same molecule?
Its IC50 is 28 ± 11 nM.

And the IC50 (human active MMP-8)?
The IC50 was 146 ± 48 nM.

What about the melting point of the same molecule?
Its melting point is 176 to 177 °C.
